Measurements: paper PMC11253624, “Unsaturated fatty acid perturbation combats emerging triazole antifungal resistance in the human fungal pathogen Aspergillus fumigatus” (mBio, 2024)
Values after ≈ are worked out from the molar mass of the structure shown.

Tests used:
Aspergillus fumigatus [1] = assay: FIC checkerboard synergy assay, A. fumigatus; assay type: cell-based; conditions: for MIC: Aspergillus fumigatus
Cryptococcus neoformans = assay: FIC checkerboard assay MBX-7591 and oleic acid, C. neoformans; assay type: cell-based
Method: Single-treatment controls were completed with 50 µL of media to substitute the volume of the other compound. […] Additional untreated and media-only controls were added to the plate as described above. Incubation of the plates and MIC assessments (individual and in combination) were performed as described above. FIC calculations were done according to the established formula: ∑FIC=MIC combination compound A/MIC individual compound A + MIC combination compound B/MIC individual compound B . Synergy was considered equal or lower than 0.5, and antagonism was considered to be higher than 2. FIC scores reported represent between three and five biological replicates. All antifungal susceptibility testing was done in 96-well plates using RPMI 1640 media buffered with 165 mM of MOPS and pH 7 using NaOH. CLSI-based microbroth dilution assays were done in accordance with M27 ([49]). […] Additionally, an untreated control (100 µL of a stock of 2 × 10^3 spores/mL and 100 µL of media) and a media-only control (200 µL media) were included in the plate. The plate was covered in a Breathe-Eazy membrane to allow for uniform oxygen diffusion throughout the plate and incubated for 24 hours at 35°C (Candida spp.) or 72 hours at 35°C ± 5% CO2 (Cryptococcus neoformans).

A. fumigatus CEA10 = assay: Fatty acid profile of 24-hour biofilms by GC-MS; assay type: cell-based, Aspergillus fumigatus; conditions: CEA10 24-hour biofilm; MBX-7591 0.58 µg/mL, voriconazole 0.0625 µg/mL
Aspergillus fumigatus [2] = assay: CLSI-based microbroth dilution MIC, A. fumigatus strains; conditions: Aspergillus fumigatus

For OC(Cn1cncn1)(Cn1cncn1)c1ccc(F)cc1F [Fluconazole, fluconazole], which MIC (Aspergillus fumigatus [1]; strain CEA10, FLC alone, read-out: MIC Azole (FLC)) is on record?
Its MIC is greater than 256 µg/mL.

And the “MIC Azole in combination (FLC)” value (Aspergillus fumigatus [1]; strain CEA10, FLC with 0.613 µg/mL MBX-7591)?
The value was 16 µg/mL.

And the “fold increase in FLC potency” value (Aspergillus fumigatus [1]; with 0.613 µg/mL MBX-7591)?
Its value is greater than 16 fold.

CCCCCCCC/C=C\CCCCCCCC(=O)O [Oleic acid, oleic acid] was tested. Which MIC (Aspergillus fumigatus [1]; CEA10, oleic acid alone, read-out: MIC OA) did it give?
Its MIC is greater than 500 µg/mL.

And the “MIC OA combination” value (Aspergillus fumigatus [1]; CEA10, first line of Table S8 (MBX-7591 9.81 μg/ml))?
The value was 7.81 µg/mL.

What about the “MIC OA combination” value (Aspergillus fumigatus [1]; CEA10, second line of Table S8 (MBX-7591 19.63 μg/ml)) of the same compound?
Its value is 15.63 µg/mL.

What about the MIC (Cryptococcus neoformans; Cryptococcus neoformans, H99, oleic acid alone, 5% CO2) of the same compound?
The MIC was greater than 500 µg/mL.

And the “MIC OA combination” value (Cryptococcus neoformans; H99, 5% CO2)?
The value was 31.25 µg/mL.

Which “C14:0 relative percentage of fatty acids” value (A. fumigatus CEA10) does the source give for C[C@@H](c1ncncc1F)[C@](O)(Cn1cncn1)c1ccc(F)cc1F [Voriconazole] here?
Its value is 0.11 ± 0.0046.

And the “C15:0 relative percentage of fatty acids” value (A. fumigatus CEA10)?
Its value is 0.39 ± 0.11.

What about the “C16:0 (palmitic acid) relative percentage of fatty acids” value (A. fumigatus CEA10) of the same compound?
The value was 18.71 ± 0.25.

What about the “C16:1n7 relative percentage of fatty acids” value (A. fumigatus CEA10) of the same compound?
The value was 0.38 ± 0.041.

What about the “C17a relative percentage of fatty acids” value (A. fumigatus CEA10) of the same compound?
Its value is 0.18 ± 0.15.

And the “C18:0 (stearic acid) relative percentage of fatty acids” value (A. fumigatus CEA10)?
The value was 3.06 ± 0.26.

What about the “C18:1n7 relative percentage of fatty acids” value (A. fumigatus CEA10) of the same compound?
The value was 0.00 ± 0.

What about the “C18:1n9 (oleic acid) relative percentage of fatty acids” value (A. fumigatus CEA10) of the same compound?
The value was 31.26 ± 1.67.

And the “C18:2n6 relative percentage of fatty acids” value (A. fumigatus CEA10)?
The value was 45.91 ± 1.99.

And the MIC (Aspergillus fumigatus [1]; read-out: MIC VCZ, strain 08-19-02-61 (TR34/L98H), alone)?
Its MIC is 2 µg/mL.

What about the MIC (Aspergillus fumigatus [1]; read-out: MIC VCZ, strain 08-31-08-91 (TR34/L98H), alone) of the same compound?
Its MIC is 4 µg/mL.

And the MIC (Aspergillus fumigatus [1]; read-out: MIC VCZ, strain F11628 (G138C), alone)?
Its MIC is greater than 8 µg/mL.

What about the MIC (Aspergillus fumigatus [1]; read-out: MIC VCZ, strain F15390 (caf8) (M220T), alone) of the same compound?
The MIC was 1 µg/mL.

And the MIC (Aspergillus fumigatus [1]; strain CEA10, alone, read-out: MIC VCZ)?
The MIC was 0.25 to 0.5 µg/mL.

What about the “MIC VCZ in combination” value (Aspergillus fumigatus [1]; strain 08-19-02-61, with MBX-7591) of the same compound?
The value was 0.5 µg/mL.

What about the “MIC VCZ in combination” value (Aspergillus fumigatus [1]; strain 08-31-08-91, with MBX-7591) of the same compound?
The value was 1 µg/mL.

And the “MIC VCZ in combination” value (Aspergillus fumigatus [1]; strain CEA10, with MBX-7591, listed as VCZ)?
The value was 0.0625 to 0.125 µg/mL.

What about the “MIC VCZ” value (Aspergillus fumigatus [1]; strain F11628 (G138C), alone, listed as VCZ) of the same compound?
The value was greater than 8 µg/mL.

What about the “MIC VCZ in combination” value (Aspergillus fumigatus [1]; strain F11628, with MBX-7591) of the same compound?
Its value is 0.5 to 1 µg/mL.

What about the “MIC VCZ in combination” value (Aspergillus fumigatus [1]; strain F15390 (caf8), with MBX-7591) of the same compound?
Its value is 0.25 µg/mL.

What about the “increase in VCZ potency in combination” value (Aspergillus fumigatus [1]; with 0.613 µg/mL MBX-7591) of the same compound?
The value was “four to eight times more potent”.

What about the MIC (Aspergillus fumigatus [2]; ATCC46455, read-out: Voriconazole MIC) of the same compound?
The MIC was 0.25 to 0.5 µg/mL (≈ 0.716 to 1.43 µM).

And the MIC (Aspergillus fumigatus [2]; read-out: Voriconazole MIC, strain 08-19-02-10 (TR34/L98H))?
The MIC was 2 µg/mL (≈ 5.73 µM).

What about the MIC (Aspergillus fumigatus [2]; read-out: Voriconazole MIC, strain 08-19-02-46 (TR34/L98H)) of the same compound?
Its MIC is 2 µg/mL (≈ 5.73 µM).

And the MIC (Aspergillus fumigatus [2]; read-out: Voriconazole MIC, strain 08-19-02-61 (TR34/L98H), Table S6)?
Its MIC is 1 µg/mL (≈ 2.86 µM).

What about the MIC (Aspergillus fumigatus [2]; read-out: Voriconazole MIC, strain 08-31-08-91 (TR34/L98H), Table S6) of the same compound?
The MIC was 4 µg/mL (≈ 11.5 µM).

What about the MIC (Aspergillus fumigatus [2]; read-out: Voriconazole MIC, strain 10-19-02-27 (TR34/L98H)) of the same compound?
The MIC was 4 µg/mL (≈ 11.5 µM).

What about the MIC (Aspergillus fumigatus [2]; read-out: Voriconazole MIC, strain F11628 (G138C), Table S6) of the same compound?
Its MIC is greater than 8 µg/mL.

And the MIC (Aspergillus fumigatus [2]; read-out: Voriconazole MIC, strain F15390 (M220T), Table S6)?
The MIC was 1 µg/mL (≈ 2.86 µM).
